Data on 27 compounds can be found in US20120202794A1 (priority 2011, published 2012).

Series [1] in a line: Cell cytotoxicity assay (MTS), CC90 as reported in Table 1, cell line not stated. In kind it is cell-based. To be noted: human; MTS assay; 8 days incubation; cell line not given. A digest of the protocol: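 Compounds, serially diluted from 100 μM, were incubated 8 days at 37° C with Huh7, HepG2 or BxPC3 (2×10^3 cells/well) or CEM (5×10^3 cells/well). Viability was read by MTS, 2 h, absorbance 490 nm. CC90 (90% inhibition) was taken against untreated cells.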
For orientation: Formazan colour is commonly taken as a measure of viable cells.

The next series has as its system HCV Replicon 1b. As to the kind of experiment: HCV inhibition assay, HCV replicon 1b (Clone A or ET-lunet cells; RT-PCR or luciferase reporter). In kind it is cell-based. To be noted: Hepatitis C virus, 96 h, HCV replicon 1b; 4 days incubation; read-out: Replicon 1b potency EC90. A digest of the protocol: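 Clone A (1500/well) or ET-lunet (3000/well) replicon cells treated with serially diluted compounds (0.5% DMSO, no G418) for 4 days at 37 °C. HCV RNA measured by one-step RT-PCR normalized to rRNA (ΔΔCt) or by luciferase luminescence versus DMSO controls; EC50/EC90 by curve fitting.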

Broadly, the EC90 is the concentration needed for an effect of 90%. `CC(C)C[C@H]1C(=O)N[C@@H](C2CCCC2)CN1C(=O)c1noc2c1CCc1cc(F)ccc1-2` [Compound 305, (3S,6S)-6-cyclopentyl-4-(7-fluoro-4,5-dihydronaphtho[2,1-d]isoxazole-3-carbonyl)-3-isobutylpiperazin-2-one] came in with a CC90 at 8 days in series [1] above 10 µM. The EC90 in the series with HCV Replicon 1b came to 1.61 µM.
With `CC(C)C[C@H]1C(=O)N[C@@H](c2ccccc2)CN1C(=O)c1noc2c1CCc1cc(F)ccc1-2` [Compound 306, (3S,6S)-4-(7-fluoro-4,5-dihydronaphtho[2,1-d]isoxazole-3-carbonyl)-3-isobutyl-6-phenylpiperazin-2-one], the CC90 at 8 days in series [1] is above 10 µM. The EC90 in the series with HCV Replicon 1b was 0.89 µM.
On the same counts, the results for `CC(C)C[C@H]1CN(C(=O)c2cc3c(s2)-c2ccccc2OC3)[C@@H](CC(C)C)C(=O)N1` [Compound 307, (3S,6S)-3,6-diisobutyl-4-(4H-thieno[3,2-c]chromene-2-carbonyl)piperazin-2-one] are above 10 µM and 4.71 µM.
Consider `CC(C)C[C@H]1CN(C(=O)c2cc3c(s2)-c2cc(F)ccc2OC3)[C@@H](CC(C)C)C(=O)N1` [Compound 308, (3S,6S)-4-(8-fluoro-4H-thieno[3,2-c]chromene-2-carbonyl)-3,6-diisobutylpiperazin-2-one], for which, in series [1], the CC90 at 8 days is above 10 µM. Besides, in the series on HCV Replicon 1b, the 90% effect concentration (EC90) amounted to 6.48 µM.
Compound `CC(C)C[C@H]1C(=O)N[C@@H](C(C)C)CN1C(=O)[C@@H]1C[C@H]1c1ccc(F)c(F)c1` [Compound 309, (3S,6S)-4-[(1R,2R)-2-(3,4-Difluoro-phenyl)-cyclopropanecarbonyl]-3-isobutyl-6-isopropyl-piperazin-2-one] yielded a CC90 at 8 days in series [1] above 10 µM. The EC90 in the series with HCV Replicon 1b stood at 0.78 µM.
Taken in the same sequence, the figures for `CC(C)C[C@H]1C(=O)N[C@@H](C2CCCC2)CN1C(=O)[C@@H]1C[C@H]1c1ccc(C(C)(C)C)cc1` [Compound 310, (3S,6S)-4-((1R,2R)-2-(4-(tert-butyl)phenyl)cyclopropanecarbonyl)-6-cyclopentyl-3-isobutylpiperazin-2-one] were above 10 µM and 0.95 µM.
On the same counts, the results for `CC(C)C[C@H]1C(=O)N[C@@H](C(C)C)CN1C(=O)[C@@H]1C[C@H]1c1ccc(C(C)(C)C)cc1` [Compound 311, (3S,6S)-4-((1R,2R)-2-(4-(tert-butyl)phenyl)cyclopropanecarbonyl)-3-isobutyl-6-isopropylpiperazin-2-one] are above 10 µM and 1.86 µM.
On the same counts, the results for `CC(C)C[C@H]1C(=O)N[C@@H](c2ccccc2)CN1C(=O)[C@@H]1C[C@H]1c1ccc(C(C)(C)C)cc1` [Compound 312, (3S,6S)-4-((1R,2R)-2-(4-(tert-butyl)phenyl)cyclopropanecarbonyl)-3-isobutyl-6-phenylpiperazin-2-one] are above 10 µM and 1.13 µM.
In the case of `CCC[C@H]1CN(C(=O)c2cc(-c3ccc(Cl)cc3)no2)[C@@H](CC(C)C)C(=O)N1` [Compound 313, (3S,6S)-4-(3-(4-chlorophenyl)isoxazole-5-carbonyl)-3-isobutyl-6-propylpiperazin-2-one], in series [1], the CC90 at 8 days is above 10 µM. Further, in the series with HCV Replicon 1b, the EC90 was found to be 0.39 µM.
`CC(C)C[C@H]1C(=O)N[C@@H](C2CCCC2)CN1C(=O)c1cc(-c2ccc(Cl)cc2)no1` [Compound 314, (3S,6S)-4-(3-(4-chlorophenyl)isoxazole-5-carbonyl)-6-cyclopentyl-3-isobutyl-piperazin-2-one]: the CC90 at 8 days in series [1] was above 10 µM. The EC90 with HCV Replicon 1b was 0.51 µM.
`CC(C)C[C@H]1C(=O)N[C@@H](C2CCCCC2)CN1C(=O)c1cc(-c2ccc(Cl)cc2)no1` [Compound 315, (3S,6S)-4-(3-(4-chlorophenyl)isoxazole-5-carbonyl)-6-cyclohexyl-3-isobutylpiperazin-2-one] had a CC90 at 8 days in series [1] above 10 µM. For the same compound, the EC90 in the series on HCV Replicon 1b amounted to 0.7 µM.
Taken in the same sequence, the figures for `CC(C)C[C@H]1C(=O)N[C@@H](c2ccccc2)CN1C(=O)c1cc(-c2ccc(Cl)cc2)no1` [Compound 316, (3S,6S)-4-(3-(4-chlorophenyl)isoxazole-5-carbonyl)-3-isobutyl-6-phenylpiperazin-2-one] were above 10 µM and 0.28 µM.
On the same counts, the results for `CC(C)CC1=CN(C(=O)c2cc(-c3ccc(F)cc3)on2)[C@@H](CC(C)C)C(=O)N1` [Compound 317, (S)-4-(5-(4-Fluorophenyl)isoxazole-3-carbonyl)-3,6-diisobutyl-3,4-dihydro-pyrazin-2(1H)-one] are above 10 µM and 0.28 µM.
On the same counts, the results for `CC(C)C[C@H]1C(=O)N(C)[C@@H](c2ccccc2)CN1C(=O)c1cc(-c2ccc(F)cc2)on1` [Compound 321, (3S,6S)-4-(5-(4-fluorophenyl)isoxazole-3-carbonyl)-3-isobutyl-1-methyl-6-phenylpiperazin-2-one] are above 10 µM and 6.45 µM.
As for `CCN1C(=O)[C@H](CC(C)C)N(C(=O)c2cc(-c3ccc(F)cc3)on2)C[C@@H]1c1ccccc1` [Compound 322, (3S,6S)-1-ethyl-4-(5-(4-fluorophenyl)isoxazole-3-carbonyl)-3-isobutyl-6-phenylpiperazin-2-one], in series [1], the CC90 at 8 days is above 10 µM. For the same compound, the EC90 with HCV Replicon 1b is above 10 µM.
In series [1], `CCCN1C(=O)[C@H](CC(C)C)N(C(=O)c2cc(-c3ccc(F)cc3)on2)C[C@@H]1c1ccccc1` [Compound 323, (3S,6S)-4-(5-(4-fluorophenyl)isoxazole-3-carbonyl)-3-isobutyl-6-phenyl-1-propylpiperazin-2-one] had a CC90 at 8 days above 10 µM. Moreover, the EC90 in the series on HCV Replicon 1b was above 10 µM.
With `CC(C)C[C@H]1C(=O)N[C@@H](C2CCCC2)CN1C(=O)[C@@H]1C[C@H]1c1ccc(F)cc1F` [Compound 325, (3S,6S)-6-cyclopentyl-4-((1R,2R)-2-(2,4-difluorophenyl)cyclopropanecarbonyl)-3-isobutylpiperazin-2-one], the CC90 at 8 days in series [1] was above 10 µM. For the same compound, the EC90 in the series on HCV Replicon 1b was above 10 µM.
For the compound `CC(C)C[C@H]1C(=O)N[C@@H](C2CCCCC2)CN1C(=O)[C@@H]1C[C@H]1c1ccc(F)cc1F` [Compound 326, (3S,6S)-6-cyclohexyl-4-((1R,2R)-2-(2,4-difluorophenyl)cyclopropanecarbonyl)-3-isobutylpiperazin-2-one], the CC90 at 8 days in series [1] is above 10 µM. In addition, the EC90 in the series on HCV Replicon 1b was above 10 µM.
`CC(C)C[C@H]1C(=O)N[C@@H](c2ccccc2)CN1C(=O)[C@@H]1C[C@H]1c1ccc(F)cc1F` [Compound 327, (3S,6S)-4-[(1R,2R)-2-(2,4-difluoro-phenyl)-cyclopropanecarbonyl]-3-isobutyl-6-phenyl-piperazin-2-one] displayed a CC90 at 8 days in series [1] above 10 µM. The EC90 with HCV Replicon 1b turned out to be 7.21 µM.
As for `CC(C)C[C@H]1C(=O)N[C@@H](C2CCCCC2)CN1C(=O)[C@@H]1C[C@H]1c1ccc(C(C)(C)C)cc1` [Compound 328, (3S,6S)-4-((1R,2R)-2-(4-(tert-butyl)phenyl)cyclopropanecarbonyl)-6-cyclohexyl-3-isobutylpiperazin-2-one], the CC90 at 8 days in series [1] was above 10 µM. Also, the EC90 in the series with HCV Replicon 1b turned out to be 2.43 µM.
On the same counts, the results for `CC(C)C[C@H]1CN(C(=O)[C@@H]2C[C@H]2c2ccc(Br)cc2)[C@@H](CC(C)C)C(=O)N1` [Compound 329, (3S,6S)-4-((1R,2R)-2-(4-bromophenyl)cyclopropanecarbonyl)-3,6-diisobutylpiperazin-2-one] are above 10 µM and 0.52 µM.
In series [1], `CCC[C@H]1CN(C(=O)[C@@H]2C[C@H]2c2ccc(Br)cc2)[C@@H](CC(C)C)C(=O)N1` [Compound 331, (3S,6S)-4-[(1R,2R)-2-(4-Bromo-phenyl)-cyclopropanecarbonyl]-3-isobutyl-6-propyl-piperazin-2-one] gave a CC90 at 8 days above 10 µM. Further, the EC90 with HCV Replicon 1b was found to be 0.56 µM.
With `CC(C)C[C@H]1C(=O)N[C@@H](c2ccccc2)CN1C(=O)[C@@H]1C[C@H]1c1ccc(Br)cc1` [Compound 333, (3S,6S)-4-[(1R,2R)-2-(4-bromo-phenyl)-cyclopropanecarbonyl]-3-isobutyl-6-phenyl-piperazin-2-one], the CC90 at 8 days in series [1] was above 10 µM. The EC90 in the series on HCV Replicon 1b was 0.646 µM.
Taken in the same sequence, the figures for `CCC[C@H]1CN(C(=O)[C@@H]2C[C@H]2c2ccc(C(C)(C)C)cc2)[C@@H](CC(C)C)C(=O)N1` [Compound 334, (3S,6S)-4-((1R,2R)-2-(4-(tert-butyl)phenyl)cyclopropanecarbonyl)-3-isobutyl-6-propyl-pylpiperazin-2-one] were above 10 µM and 0.9 µM.
On the same counts, the results for `O=C1N[C@@H](c2ccccc2)CN(C(=O)c2cc(-c3ccc(F)cc3)on2)[C@H]1CC1CC1` [Compound 336, (3S,6S)-3-(cyclopropylmethyl)-4-(5-(4-fluorophenyl)isoxazole-3-carbonyl)-6-phenylpiperazin-2-one] are above 10 µM and 0.36 µM.
On the same counts, the results for `O=C1N[C@@H](c2ccccc2)CN(C(=O)[C@@H]2C[C@H]2c2ccccc2)[C@H]1CC1CC1` [Compound 338, (3S,6S)-3-(cyclopropylmethyl)-6-phenyl-4-((1R,2R)-2-phenylcyclopropanecarbonyl)-piperazin-2-one] are above 10 µM and 5.07 µM.
For the compound `CC[C@@H](C)[C@H]1C(=O)N[C@@H](c2ccccc2)CN1C(=O)c1cc(-c2ccc(F)cc2)on1` [Compound 339, (3S,6S)-3-((R)-sec-butyl)-4-(5-(4-fluorophenyl)isoxazole-3-carbonyl)-6-phenylpiperazin-2-one], the CC90 at 8 days in series [1] was above 10 µM. Moreover, the EC90 in the series on HCV Replicon 1b came to 0.8 µM.
